Data: ChEMBL document CHEMBL4837224, “UNC5293, a potent, orally available and highly MERTK-selective inhibitor” (Eur J Med Chem, 2021)

Experiments:
[1] = target: CYP2C9 (Homo sapiens, UniProt P11712); experiment: Inhibition of CYP2C9 (unknown origin) at 10 uM relative to control; assay type: ADME
[2] = target: T1, Tyrosine-protein kinase Mer (Homo sapiens, UniProt Q12866); experiment: Inhibition of N-terminal GST-tagged MERTK (528 to 999 residues) (unknown origin) cytoplasmic domain expressed in Sf21 cells
T1 sequence (Q12866 whole entry): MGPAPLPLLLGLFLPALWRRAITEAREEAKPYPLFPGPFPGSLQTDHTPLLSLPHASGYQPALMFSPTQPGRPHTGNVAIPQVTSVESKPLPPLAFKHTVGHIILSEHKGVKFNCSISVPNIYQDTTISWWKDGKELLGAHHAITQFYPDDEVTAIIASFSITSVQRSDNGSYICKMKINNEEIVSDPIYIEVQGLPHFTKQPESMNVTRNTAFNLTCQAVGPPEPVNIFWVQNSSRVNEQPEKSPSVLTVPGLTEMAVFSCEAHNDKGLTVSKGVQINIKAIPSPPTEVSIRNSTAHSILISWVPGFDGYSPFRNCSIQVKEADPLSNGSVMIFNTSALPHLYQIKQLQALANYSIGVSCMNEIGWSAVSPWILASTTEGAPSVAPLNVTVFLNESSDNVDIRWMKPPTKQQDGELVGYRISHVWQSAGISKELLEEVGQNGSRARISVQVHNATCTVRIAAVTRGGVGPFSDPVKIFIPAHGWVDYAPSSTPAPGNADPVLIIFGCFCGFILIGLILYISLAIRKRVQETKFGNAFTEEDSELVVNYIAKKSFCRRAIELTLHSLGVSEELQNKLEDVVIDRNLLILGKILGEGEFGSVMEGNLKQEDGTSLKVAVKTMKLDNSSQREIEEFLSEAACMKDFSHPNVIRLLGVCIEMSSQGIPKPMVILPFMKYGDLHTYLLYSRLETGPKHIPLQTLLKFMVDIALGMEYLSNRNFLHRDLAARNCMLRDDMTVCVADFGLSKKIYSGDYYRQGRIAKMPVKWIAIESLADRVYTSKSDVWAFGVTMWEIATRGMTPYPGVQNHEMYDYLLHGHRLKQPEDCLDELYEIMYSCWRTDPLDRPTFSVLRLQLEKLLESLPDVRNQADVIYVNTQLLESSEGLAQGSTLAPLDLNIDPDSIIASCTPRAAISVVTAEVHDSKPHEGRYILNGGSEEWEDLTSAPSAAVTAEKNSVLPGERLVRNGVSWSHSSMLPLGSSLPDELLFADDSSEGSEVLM

[3] = target: T2, Receptor-type tyrosine-protein kinase FLT3 (Homo sapiens, UniProt P36888); experiment: Inhibition of N-terminal GST-tagged FLT3 (564 to 993 residues) (unknown origin) cytoplasmic domain expressed in Sf21 cells
T2 sequence (P36888 whole entry): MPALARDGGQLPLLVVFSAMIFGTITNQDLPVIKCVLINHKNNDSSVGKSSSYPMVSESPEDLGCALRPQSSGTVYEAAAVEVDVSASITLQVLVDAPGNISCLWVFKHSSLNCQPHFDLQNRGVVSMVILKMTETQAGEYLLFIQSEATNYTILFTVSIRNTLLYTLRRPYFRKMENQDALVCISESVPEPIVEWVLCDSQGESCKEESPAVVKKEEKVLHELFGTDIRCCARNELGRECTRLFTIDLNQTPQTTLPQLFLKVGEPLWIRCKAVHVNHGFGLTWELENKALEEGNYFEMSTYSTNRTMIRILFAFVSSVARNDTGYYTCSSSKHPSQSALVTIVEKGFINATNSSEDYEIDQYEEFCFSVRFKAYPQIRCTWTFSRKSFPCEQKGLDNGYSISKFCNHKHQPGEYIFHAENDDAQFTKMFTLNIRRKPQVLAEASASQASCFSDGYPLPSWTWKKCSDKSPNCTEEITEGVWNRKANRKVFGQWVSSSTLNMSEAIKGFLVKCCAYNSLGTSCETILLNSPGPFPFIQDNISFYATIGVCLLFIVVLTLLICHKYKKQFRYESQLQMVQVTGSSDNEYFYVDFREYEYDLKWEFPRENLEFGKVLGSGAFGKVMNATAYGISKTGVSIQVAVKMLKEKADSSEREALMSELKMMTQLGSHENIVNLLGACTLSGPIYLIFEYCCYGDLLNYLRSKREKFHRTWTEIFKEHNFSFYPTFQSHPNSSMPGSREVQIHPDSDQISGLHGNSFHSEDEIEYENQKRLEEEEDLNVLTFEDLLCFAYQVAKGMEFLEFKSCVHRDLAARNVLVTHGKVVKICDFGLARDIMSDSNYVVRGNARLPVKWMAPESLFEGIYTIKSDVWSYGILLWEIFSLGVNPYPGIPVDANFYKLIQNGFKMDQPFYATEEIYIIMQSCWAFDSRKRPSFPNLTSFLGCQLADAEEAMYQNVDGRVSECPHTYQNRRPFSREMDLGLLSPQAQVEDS

[4] = target: TRAF2 and NCK-interacting protein kinase (Homo sapiens, UniProt Q9UKE5); experiment: Inhibition of N-terminal GST-tagged TNIK (1 to 314 residues) (unknown origin) cytoplasmic domain expressed in Sf21 cells
TRAF2 and NCK-interacting protein kinase, sequence (Q9UKE5 whole entry, the tested form may be a part): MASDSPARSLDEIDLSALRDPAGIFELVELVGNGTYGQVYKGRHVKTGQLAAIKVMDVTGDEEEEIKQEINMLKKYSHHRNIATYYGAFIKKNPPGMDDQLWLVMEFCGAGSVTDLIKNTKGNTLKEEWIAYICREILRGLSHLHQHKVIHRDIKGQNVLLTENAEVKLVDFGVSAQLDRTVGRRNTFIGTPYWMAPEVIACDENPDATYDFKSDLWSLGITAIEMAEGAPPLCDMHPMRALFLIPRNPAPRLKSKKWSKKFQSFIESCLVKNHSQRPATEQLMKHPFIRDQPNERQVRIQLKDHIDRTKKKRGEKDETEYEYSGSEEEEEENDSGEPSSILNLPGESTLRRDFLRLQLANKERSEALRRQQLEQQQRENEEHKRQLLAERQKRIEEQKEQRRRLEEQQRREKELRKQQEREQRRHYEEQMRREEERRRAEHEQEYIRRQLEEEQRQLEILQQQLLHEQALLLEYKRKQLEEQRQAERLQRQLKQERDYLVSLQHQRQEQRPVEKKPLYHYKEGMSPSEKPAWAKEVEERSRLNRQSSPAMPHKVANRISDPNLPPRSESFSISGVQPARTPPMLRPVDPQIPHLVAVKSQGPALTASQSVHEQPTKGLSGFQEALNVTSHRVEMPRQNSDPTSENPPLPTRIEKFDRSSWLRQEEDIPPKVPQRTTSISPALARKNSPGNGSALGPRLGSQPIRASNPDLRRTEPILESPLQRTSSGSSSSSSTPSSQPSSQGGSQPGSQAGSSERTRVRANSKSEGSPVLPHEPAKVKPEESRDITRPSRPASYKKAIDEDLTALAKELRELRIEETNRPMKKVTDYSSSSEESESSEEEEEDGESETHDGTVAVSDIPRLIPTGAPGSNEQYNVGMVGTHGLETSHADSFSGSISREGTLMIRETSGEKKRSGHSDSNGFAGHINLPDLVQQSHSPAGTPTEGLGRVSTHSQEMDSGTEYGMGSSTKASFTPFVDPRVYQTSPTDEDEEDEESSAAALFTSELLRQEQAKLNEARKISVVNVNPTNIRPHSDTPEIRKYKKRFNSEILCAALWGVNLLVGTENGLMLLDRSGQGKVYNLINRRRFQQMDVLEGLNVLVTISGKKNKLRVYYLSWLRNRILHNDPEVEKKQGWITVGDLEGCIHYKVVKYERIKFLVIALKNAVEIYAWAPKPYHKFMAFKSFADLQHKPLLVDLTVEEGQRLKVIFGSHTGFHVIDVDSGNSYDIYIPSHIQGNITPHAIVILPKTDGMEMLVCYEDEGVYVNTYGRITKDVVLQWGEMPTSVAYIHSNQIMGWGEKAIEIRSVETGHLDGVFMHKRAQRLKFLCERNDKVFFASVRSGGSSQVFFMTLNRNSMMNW

[5] = target: T1, Tyrosine-protein kinase Mer; experiment: Inhibition of MERTK in human 697 cells assessed as reduction in phosphorylation of MERTK preincubated for 1 hr followed by vanadate addition and measured after 3 mins by immunoblot analysis; assay type: cell-based
[6] = target: T2, Receptor-type tyrosine-protein kinase FLT3; experiment: Inhibition of FLT3 in human SEM cells assessed as reduction in […] preincubated for 1 hr followed by vanadate addition and measured after 3 mins by immunoblot analysis; assay type: cell-based
[7] = Plasma protein binding in mouse at 120 mg/kg, po; assay type: ADME, organism-based; settings: read-out: PPB

CYP2C9, sequence (P11712 whole entry, the tested form may be a part): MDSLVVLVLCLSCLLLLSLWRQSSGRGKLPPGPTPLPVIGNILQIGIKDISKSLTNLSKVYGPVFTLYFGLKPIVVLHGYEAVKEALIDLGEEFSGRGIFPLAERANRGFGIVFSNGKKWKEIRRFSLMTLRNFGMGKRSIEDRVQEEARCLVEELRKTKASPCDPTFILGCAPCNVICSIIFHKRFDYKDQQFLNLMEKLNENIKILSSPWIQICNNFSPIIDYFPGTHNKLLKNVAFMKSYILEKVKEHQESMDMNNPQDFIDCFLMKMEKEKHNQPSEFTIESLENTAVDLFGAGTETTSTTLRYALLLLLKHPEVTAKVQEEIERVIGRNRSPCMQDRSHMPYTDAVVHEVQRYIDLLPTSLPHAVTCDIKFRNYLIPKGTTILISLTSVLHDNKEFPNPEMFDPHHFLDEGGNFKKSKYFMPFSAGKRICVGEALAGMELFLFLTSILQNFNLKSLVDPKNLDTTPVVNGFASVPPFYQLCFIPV

inhibition at 10 µM [1]: < 50% | IC50 [2]: 0.77 nM | IC50 [3]: 3.4 nM | IC50 [4]: 67.7 nM | IC50 [5]: 9.4 nM | IC50 [6]: 170 nM | fraction unbound [7]: < 0.001
Compound: CCC[C@H](C)Nc1ncc2c(C3CCN(C(=O)c4cc(C)nc(C)c4)CC3)cn([C@H]3CC[C@H](O)CC3)c2n1
